Assay results taken from patent publication US20250066287A1, “PHASE CHANGE AROMATIC AZO COMPOUNDS, METHOD OF MANUFACTURE, AND USE AS HOMOGENOUS CATALYST” (priority 2023, published 2025).
Where “and” joins values, the source holds several entries; their conditions need not be identical. Equal values may be shown once. Read-outs that look alike come from different tables or passages of the source.

Tests used:
[1] = Solvent screening for reversible solubility changes; details: 0.5 mg in 1 mL; irradiation of 340 nm and 430 nm
Procedure: To determine solubility, 0.5 mg of compounds were added to 1 mL of common solvents (1-MeOH, 2-acetonitrile (MeCN), 3-acetone, 4-THF, 5-hexane, 6-EtOAc, 7-DMF, 8-DMSO, and 9-toluene, respectively). […] The samples with suspensions were then stirred overnight under 340 nm irradiation. […] These samples were then stirred for 4 hours under 430 nm to trigger the precipitation of the compounds.

[2] = Photoswitching between E and Z (UV-vis, photostationary state); assay type: physicochemical; details: dilute solution; compound 1 in acetonitrile, compound 2 in methanol
Procedure: To find solvents in which the ratio between the maximum concentrations of Z and E isomers at the respective photostationary state (PSS) (i.e., r=[Z]max/[E]max) is the greatest, a solvent screening test for each compound was performed (FIGS. 21-24).
(§1) Ultraviolet-visible (UV-Vis) absorption spectra were obtained with a Cary 50 Bio UV-Vis spectrophotometer in a UV Quartz cuvette with a path length of 10 mm. Compounds were dissolved in solvents at a concentration of 0.0125 mg/ml unless otherwise specified. The UV-Vis absorption was first recorded in dark for 5 min, then samples were irradiated with a specified wavelength until no change in their absorbance was observed. Samples were irradiated with Thorlabs LEDs: M340L4 (340 nm, 2.22 μW/mm^2, 60 mW), M430L4 (430 nm, 35.3 μW/mm^2, 600 mW).

[3] = Light-induced precipitation of catalysts from pristine solvent; assay type: physicochemical; details: within 10 min of 430 nm irradiation; 1 in acetonitrile, 2 in methanol
Procedure: FIG. 6 and FIG. 25 illustrate the efficiencies of 430 nm induced catalyst precipitation and recovery for compounds 1 and 2, which were obtained by weighing the filtered precipitates after irradiation. […] The full recovery of the catalysts is limited by the PSS ratios of compounds at 430 nm (82% for 1- E and 84% for 2-E).
Light-induced precipitation of catalysts. To determine light-induced precipitation of catalysts, 44 mg of compound 1 and 34 mg of compound 2 were added to 2 mL of acetonitrile and methanol, respectively. The suspensions were irradiated at 340 nm overnight to obtain clear Z solutions. Then, the solutions were irradiated at 430 nm and monitored over 10 min.

[4] = Thermal reversion kinetics measurements (Z-to-E); assay type: physicochemical; details: 1 in MeCN, 2 in MeOH; for τ1/2 (thermal half-life of Z isomer): Z-to-E thermal reversion at 298 K (room temperature); for ΔG^‡ / ΔH^‡ / ΔS‡: thermal isomerization of Z isomers at 298 K
Procedure: Thermal reversion kinetics measurements. The thermal half-life of compounds 1 and 2 were determined by following a reported procedure (G. D. Han, et all., J. Mater. Chem. A 2016, 4, 16157-16165). A solution of compounds 1 or 2 (˜1.7×10^−5 M) were prepared in MeCN and MeOH, respectively, then irradiated at 340 nm to obtain a Z-rich solution at photostationary state (PSS), which was then heated at three different elevated temperatures (compound 1: 333 K, 338 K, 343 K; compound 2: 318 K, 323 K, 328 K) in dark.

[5] = Kinetic tests of Henry reaction; details: for product yield: pre-activated Z, 24 hours; for rate constant kZ: pre-activated soluble Z
[6] = Quantification of solubility of E and Z isomers in select solvents; details: for Isomer (% E): saturated solution after 340 nm irradiation
Procedure: Quantification of solubility. […] The mixtures were sonicated for 5 min. The obtained suspensions were filtered with a PTFE filter to remove the excess solids. The solvents in clear filtrates were removed using a rotary evaporator and the solutes were dried under vacuum overnight.
wherein [Z]max and [E]max are the maximum concentration of the Z-isomer and the E-isomer, respectively.

[7] = Absorption coefficient of reactants, products and catalysts (UV-Vis); assay type: physicochemical
Procedure: as §1, with “mW). […]” for “mW).”

[8] = Michael addition in acetonitrile; in 10 hours
Procedure: For compound 1: To a solution of trans-β-nitrostyrene (11.1 mg, 7.5 μmol) and acetylacetone (7.6 mg, 7.5 μmol) in MeCN (0.25 mL) was added either insoluble E isomer or pre-activated Z isomer of compound 1 (5.4 mg, 0.75 μmol). Three identical samples were prepared. 0.2 mL of the solution was taken to check the product yield via ^1H NMR at each time point.

[9] = Cycling tests of Michael addition reaction; details: Michael addition in acetonitrile; after the subsequent two reactions with recovered catalyst, 10 mol % loading
[10] = Cycling tests of Henry reaction; details: acetonitrile
[11] = pristine azobenzene; cited from earlier work
[12] = EtOAc, Z-rich after 340 nm irradiation overnight
[13] = MeOH, Z-rich after 340 nm irradiation overnight
[14] = Henry reaction, 1 in acetonitrile, 2 in methanol
[15] = MeCN, Z-rich after 340 nm irradiation overnight
[16] = Toluene, Z-rich after 340 nm irradiation overnight

CN(CCCNC(=O)c1ccc(-c2ccc(C(=O)NCCCN(C)CCc3ccc(N=Nc4ccccc4)cc3)cc2)cc1)CCc1ccc(N=Nc2ccccc2)cc1 [Compound 2]
ideal solvent candidates for reversible solubility changes [1]: MeOH and EtOAc
% E after irradiation at 430 nm (PSS) [2]: 84 % E
% Z after irradiation at 340 nm (PSS) [2]: 84 % Z
% Z drop in the suspension [3]: 75%
τ1/2 (thermal half-life of Z isomer) [4]: 84 h
ΔG^‡ [4]: 105.2 kJ/mol
ΔH^‡ [4]: 75.5 kJ/mol
ΔS‡ [4]: −99.7 J mol^−1K^−1
rate constant kE-UV [5]: 1.16×10 ^−5 s^−1
r=[Z]max/[E]max ([6]; EtOAc): 6.0
Solubility ([6]; EtOAc, E isomer (100% E)): 2.4 g/L and 3.0 mM
Solubility [6, 12]: 14 g/L and 18 mM
Isomer (% E) ([6]; EtOAc): 14 % E
r=[Z]max/[E]max ([6]; MeOH (methanol)): 8.8
Solubility ([6]; MeOH, E isomer (100% E)): 1.9 g/L and 2.4 mM
Solubility [6, 13]: 17 g/L and 21 mM
Isomer (% E) ([6]; MeOH): 16 % E

CN(CCCNC(=O)c1ccc(-c2ccc(C(=O)NCCCN(C)CCc3ccc(/N=N/c4ccccc4)cc3)cc2)cc1)CCc1ccc(/N=N/c2ccccc2)cc1 [Compound 2-E]
% E after irradiation at 430 nm (PSS) [2]: 84 % E
ε340 nm ([7]; MeOH): 25623 M⁻¹ cm⁻¹ and 25623.3 M⁻¹ cm⁻¹
ε430 nm ([7]; MeOH): 2375.3 M⁻¹ cm⁻¹

CN(CCCNC(=O)c1ccc(C(=O)NCCCN(C)CCc2ccc(/N=N\c3ccccc3)cc2)cc1)CCc1ccc(/N=N\c2ccccc2)cc1 [Compound 1-Z]
τ1/2 (thermal half-life of Z isomer) [4]: 199 h
product yield [5, 14]: about 70%
rate constant kZ [5, 14]: 1.37e-05 s⁻¹
ε340 nm ([7]; MeCN): 6780.1 M⁻¹ cm⁻¹
ε430 nm ([7]; MeCN): 2857.4 M⁻¹ cm⁻¹

CN(CCCNC(=O)c1ccc2cc(C(=O)NCCCN(C)CCc3ccc(N=Nc4ccccc4)cc3)ccc2c1)CCc1ccc(N=Nc2ccccc2)cc1 [Compound 3]
ideal solvent candidates for reversible solubility changes [1]: MeOH and acetone
r=[Z]max/[E]max ([6]; Acetone): 5.7
Solubility ([6]; Acetone, E isomer (100% E)): 3.8 g/L and 4.9 mM
Isomer (% E) ([6]; Acetone): 14 % E
r=[Z]max/[E]max ([6]; MeOH (methanol)): 4.0
Solubility ([6]; MeOH, E isomer (100% E)): 3.9 g/L and 5.0 mM
Solubility [6, 13]: 16 g/L and 20 mM
Isomer (% E) ([6]; MeOH): 27 % E

CN(CCCNC(=O)c1ccc(C(=O)NCCCN(C)CCc2ccc(N=Nc3ccccc3)cc2)cc1)CCc1ccc(N=Nc2ccccc2)cc1 [Compound 1]
ideal solvent candidates for reversible solubility changes [1]: MeCN and toluene
% E after irradiation at 430 nm (PSS) [2]: 82 % E
% Z after irradiation at 340 nm (PSS) [2]: ~88 % Z
% Z drop in the suspension [3]: 75%
τ1/2 (thermal half-life of Z isomer) [4]: 199 h
ΔG^‡ [4]: 107.4 kJ/mol
ΔH^‡ [4]: 100.3 kJ/mol
ΔS‡ [4]: −23.8 J mol^−1K^−1
product yield of Z-rich catalyst compared to its E counterpart [8]: 2.4 fold
product yield [9]: 82%
% Z by in-situ UV-induced E→Z isomerization in the reaction medium ([5]; Henry reaction mixture in acetonitrile, after 24-hour 340 nm irradiation): 48 % Z
rate constant kE-UV ([5]; Henry reaction, in-situ UV (340 nm) activated catalyst, 1 in acetonitrile, 2 in methanol): 4.24e-06 s⁻¹
yield of product ([10]; 1st Henry reaction (16 hours)): 56%
yield of product ([10]; 2nd Henry reaction (16 hours)): 57%
yield of product ([10]; third Henry reaction (24 hours)): 70%
r=[Z]max/[E]max ([6]; MeCN (acetonitrile)): 10.4 and 10.3
Solubility ([6]; MeCN, E isomer (100% E)): 2.1 g/L and 2.9 mM
Solubility [6, 15]: 22 g/L and 30 mM
Isomer (% E) ([6]; MeCN): 12 % E
r=[Z]max/[E]max ([6]; Toluene): 2.8
Solubility ([6]; Toluene, E isomer (100% E)): 5.4 g/L and 7.5 mM
Solubility [6, 16]: 15 g/L and 21 mM
Isomer (% E) ([6]; Toluene): 17 % E

O=Cc1ccc([N+](=O)[O-])cc1 [Nitrobenzaldehyde, 4-nitrobenzaldehyde]
ε340 nm ([7]; MeCN): 323.3 M⁻¹ cm⁻¹
ε340 nm ([7]; MeCN, listed as 4-nitrobenzaldehyde): 323 M⁻¹ cm⁻¹
ε340 nm ([7]; MeOH): 312.5 M⁻¹ cm⁻¹

c1ccc(N=Nc2ccccc2)cc1 [azobenzene]
% E at 430 nm (photoswitching property) [11]: 83 % E

CN(CCCNC(=O)c1ccc(-c2ccc(C(=O)NCCCN(C)CCc3ccc(/N=N\c4ccccc4)cc3)cc2)cc1)CCc1ccc(/N=N\c2ccccc2)cc1 [Compound 2-Z]
τ1/2 (thermal half-life of Z isomer) [4]: 84 h
product yield [5, 14]: 85%
rate constant kZ [5, 14]: 2.6e-05 s⁻¹
ε340 nm ([7]; MeOH): 2937.1 M⁻¹ cm⁻¹
ε430 nm ([7]; MeOH): 3632.2 M⁻¹ cm⁻¹

CN(CCCNC(=O)CCCC#CC#CCCCC(=O)NCCCN(C)CCc1ccc(N=Nc2ccccc2)cc1)CCc1ccc(N=Nc2ccccc2)cc1 [Compound 4]
ideal solvent candidates for reversible solubility changes [1]: no solvent is ideal
r=[Z]max/[E]max ([6]; EtOAc): 9.4
Solubility ([6]; EtOAc, E isomer (100% E)): 2.6 g/L and 3.3 mM
Solubility [6, 12]: 24 g/L and 31 mM
Isomer (% E) ([6]; EtOAc): 23 % E
r=[Z]max/[E]max ([6]; MeCN (acetonitrile)): 10.0
Solubility ([6]; MeCN, E isomer (100% E)): 3.3 g/L and 4.3 mM
Solubility [6, 15]: 33 g/L and 43 mM
Isomer (% E) ([6]; MeCN): 9 % E
r=[Z]max/[E]max ([6]; Toluene): 13.9
Solubility ([6]; Toluene, E isomer (100% E)): 2.6 g/L and 3.3 mM
Solubility [6, 16]: 36 g/L and 46 mM
Isomer (% E) ([6]; Toluene): 55 % E

CC(=O)CC(C)=O [Acetylacetone, acetylacetone]
ε340 nm ([7]; MeCN): 2.4 M⁻¹ cm⁻¹
ε340 nm ([7]; MeOH): 31.1 M⁻¹ cm⁻¹

O=[N+]([O-])/C=C/c1ccccc1 [Nitrostyrene, trans-β-nitrostyrene]
ε340 nm ([7]; MeCN): 11327.3 M⁻¹ cm⁻¹
ε340 nm ([7]; MeCN, listed as trans-β-nitrostyrene): 11327 M⁻¹ cm⁻¹
ε340 nm ([7]; MeOH): 15390.7 M⁻¹ cm⁻¹

CC[N+](=O)[O-] [Nitroethane, nitroethane]
ε340 nm ([7]; MeCN): 0.3 M⁻¹ cm⁻¹
ε340 nm ([7]; MeOH): 1.3 M⁻¹ cm⁻¹

CN(CCCNC(=O)c1ccc(C(=O)NCCCN(C)CCc2ccc(/N=N/c3ccccc3)cc2)cc1)CCc1ccc(/N=N/c2ccccc2)cc1 [Compound 1-E]
% E after irradiation at 430 nm (PSS) [2]: 82 % E
ε340 nm ([7]; MeCN): 24004 M⁻¹ cm⁻¹ and 24004.3 M⁻¹ cm⁻¹
ε430 nm ([7]; MeCN): 2336.5 M⁻¹ cm⁻¹
